Some test systems named below: SK-MEL-5 melanoma; MOLT-4 leukemia; HCT-15 colon; A549 NSCLC; TK-10 renal; NCI-H226 lung; M14 melanoma; RPMI-8226 leukemia; K-562 leukemia; CAKI-1 renal.
What all share (experiment): NCI anticancer screen, dose series, 48 h

Where “and” joins values, the source holds several entries; their conditions need not be identical. Identical values can stand only once.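 48-hour exposure; five concentrations; linearly interpolated endpoints. GI50 = concentration required for 50% inhibition of growth. TGI is the concentration that stops growth completely.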 Peptide text beside a SMILES is read from it. * marks the point of attachment. X26 = Clc1c(Cl)c(Cl)c(O*)c(Cl)c1Cl; Boc = CC(C)(C)OC(=O)*; OBn = c1ccc(CO*)cc1; Bn = c1ccc(C*)cc1

In the case of `CCCCCCCCCCCCNC(=O)CCC(NC(=O)c1ccc(N(C)Cc2cnc3nc(N)nc(N)c3n2)cc1)C(=O)NCCCCCCCCCCCC` (stereo unspecified), the TGI with SK-MEL-5 melanoma, in the assay with MOLT-4 leukemia, in the assay on HCT-15 colon, with A549 NSCLC, in the assay with TK-10 renal and in the assay on NCI-H226 lung was greater than 100 µM throughout. Moreover, the TGI in the assay on M14 melanoma was greater than 100 µM; with RPMI-8226 leukemia, greater than 100 µM; in the assay with K-562 leukemia it was 62.6 µM.
For the molecule `O=C1/C(=C/c2ccncc2)C(n2cccc2)c2c(Br)sc(Br)c21` (stereo unspecified), the TGI was 10.9 µM in the assay on CAKI-1 renal; 27.6 µM in the assay with SK-MEL-5 melanoma; 4.64 µM with MOLT-4 leukemia; 11.1 µM in the assay with HCT-15 colon; 34.5 µM with A549 NSCLC; 14.6 µM in the assay with TK-10 renal. The TGI with RPMI-8226 leukemia came out at 7.2 µM; with K-562 leukemia, 6.91 µM.
`C=C(C)[C@H]1CC(=O)/C(C)=C\CC/C(C)=C/CC[C@@]2(C)O[C@@H]2C1`: the TGI is 9.41 µM in the assay on CAKI-1 renal; 45.5 µM with SK-MEL-5 melanoma; greater than 100 µM with MOLT-4 leukemia; greater than 100 µM with HCT-15 colon; 34.5 µM in the assay on A549 NSCLC; 76.5 µM in the assay with TK-10 renal. In addition, the TGI in the assay with M14 melanoma was greater than 100 µM; in the assay on RPMI-8226 leukemia, 52.1 µM; in the assay with K-562 leukemia, greater than 100 µM.
For `COc1ccc(C2=C(Cl)C(=O)O/C2=C\c2ccc(OC)c(Br)c2)cc1Cl`, the TGI in the assay on CAKI-1 renal was greater than 100 µM; with SK-MEL-5 melanoma, greater than 100 µM; in the assay with MOLT-4 leukemia, greater than 100 µM; with HCT-15 colon it was greater than 100 µM; in the assay with A549 NSCLC it was greater than 100 µM; in the assay with TK-10 renal, 38.3 µM. For the same molecule, the TGI with M14 melanoma, in the assay with RPMI-8226 leukemia and in the assay on K-562 leukemia was greater than 100 µM throughout.
As for `O=P(OCc1ccccc1)(OCc1ccccc1)C(O)/C=C/c1ccccc1` (stereo unspecified), the TGI in the assay with CAKI-1 renal was 98.7 µM; in the assay on SK-MEL-5 melanoma it was 34.6 µM; in the assay on MOLT-4 leukemia, 48.1 µM; in the assay on HCT-15 colon, greater than 100 µM; in the assay with A549 NSCLC it was greater than 100 µM; in the assay on NCI-H226 lung it was 78.3 µM. Besides, the TGI in the assay on M14 melanoma was 37 µM; in the assay with RPMI-8226 leukemia it was 82.8 µM; in the assay with K-562 leukemia it was greater than 100 µM.
With `COc1ccc(C2Oc3c(OC)cc(CCCO)cc3C2CO)cc1OC` (stereo unspecified), in the assay with SK-MEL-5 melanoma, the GI50 is 36 µM and 12 µM. The TGI in the assay with SK-MEL-5 melanoma was > 100 µM and 31.1 µM; in the assay with MOLT-4 leukemia it was 96.7 µM and > 100 µM; in the assay on HCT-15 colon it was greater than 100 µM; in the assay with A549 NSCLC, greater than 100 µM; in the assay on TK-10 renal it was greater than 100 µM; in the assay on NCI-H226 lung, greater than 100 µM. Moreover, the TGI with M14 melanoma is greater than 100 µM; in the assay on RPMI-8226 leukemia, 60.4 µM and > 100 µM; in the assay with K-562 leukemia, greater than 100 µM.
As to `CC(C)CC(NC(=O)C(CCC(=O)OCc1ccccc1)NC(=O)OC(C)(C)C)C(=O)NC(COCc1ccccc1)C(=O)NC(Cc1ccccc1)C(=O)Oc1c(Cl)c(Cl)c(Cl)c(Cl)c1Cl` (stereo unspecified) (Boc-E(OBn)LS(Bn)F-X26; configuration not given here), the TGI amounted to 48.4 µM in the assay with CAKI-1 renal; 40.9 µM with SK-MEL-5 melanoma; 54.1 µM with MOLT-4 leukemia; 51 µM in the assay on HCT-15 colon; 96 µM with A549 NSCLC; 72.1 µM with TK-10 renal. For the same molecule, the TGI stood at 78 µM with M14 melanoma and 76.6 µM with RPMI-8226 leukemia.
For the molecule `CC(C)(C)c1cc(/C=C2/NC(=O)NC2=O)cc(C(C)(C)C)c1O`, the TGI with CAKI-1 renal came to 31.5 µM; in the assay on SK-MEL-5 melanoma, 27 µM; with MOLT-4 leukemia it was 44.6 µM; with HCT-15 colon it was 28.2 µM; in the assay with TK-10 renal it was 30.2 µM; in the assay with NCI-H226 lung, 33 µM. Besides, the values for the TGI in the assay with RPMI-8226 leukemia and in the assay on K-562 leukemia were 31.9 µM and 33.1 µM, respectively.
`O=c1c(-c2ccccc2)c(SCCN2CCCCCC2)n(-c2ccccc2)c(=S)n1-c1ccccc1`: the TGI with CAKI-1 renal was 99.1 µM; in the assay with SK-MEL-5 melanoma it was greater than 100 µM; with MOLT-4 leukemia it was 57.5 µM; in the assay on HCT-15 colon it was greater than 100 µM; in the assay on TK-10 renal it was greater than 100 µM; in the assay on NCI-H226 lung it was greater than 100 µM. Besides, the figures for the TGI in the assay on RPMI-8226 leukemia and in the assay on K-562 leukemia were greater than 100 µM and 93.9 µM, respectively.
On to `CCN1CCN(Cc2ccc(NC(=O)Nc3ccc(-n4ccc5c(NC(=O)c6ccccc6)nccc54)cc3)cc2C(F)(F)F)CC1`, for which the GI50 was 0.764 µM in the assay with SK-MEL-5 melanoma; 0.227 µM with HCT-15 colon; 1.5 µM with TK-10 renal; 1.54 µM with NCI-H226 lung; 1.12 µM in the assay on M14 melanoma; 0.942 µM with RPMI-8226 leukemia. Moreover, the GI50 in the assay on K-562 leukemia was 0.0653 µM. Also, the TGI with SK-MEL-5 melanoma was 2.02 µM; in the assay on HCT-15 colon, 1.81 µM; in the assay with TK-10 renal, greater than 100 µM; in the assay on NCI-H226 lung, 4.84 µM; with M14 melanoma, 2.39 µM; in the assay with RPMI-8226 leukemia it was greater than 100 µM. In addition, in the assay on K-562 leukemia, the TGI came to 1.52 µM.
As for `CC(=O)N(C)c1ccc(Nc2ccnc3ccc4nn(C)nc4c23)cc1`, the TGI came out at 30.5 µM in the assay with CAKI-1 renal; 37.6 µM in the assay with SK-MEL-5 melanoma; 58 µM in the assay with MOLT-4 leukemia; 64.5 µM in the assay on HCT-15 colon; 78 µM in the assay with A549 NSCLC; 70.2 µM in the assay on TK-10 renal. In addition, the TGI was 34.3 µM in the assay with NCI-H226 lung, greater than 100 µM with M14 melanoma and 46.9 µM in the assay with RPMI-8226 leukemia.
For the molecule `Cc1cnc2[nH]c(-c3cccc(F)c3)cc(=O)c2c1`, the TGI in the assay on CAKI-1 renal is greater than 100 µM; in the assay on MOLT-4 leukemia, greater than 100 µM; in the assay with HCT-15 colon, 2.59 µM; with A549 NSCLC, greater than 100 µM; in the assay on NCI-H226 lung it was 4.43 µM; in the assay with RPMI-8226 leukemia, greater than 43 µM. This molecule displayed a TGI in the assay on K-562 leukemia greater than 100 µM.
As for `CCOC(=O)Cn1nnc2cc(Nc3c(C)[n+]([O-])c4cc(F)c(OCC)cc4[n+]3[O-])ccc21`, the TGI is greater than 100 µM with CAKI-1 renal; greater than 100 µM with SK-MEL-5 melanoma; greater than 100 µM with MOLT-4 leukemia; greater than 100 µM with HCT-15 colon; 64.4 µM in the assay with TK-10 renal; greater than 100 µM in the assay on NCI-H226 lung. Besides, the TGI in the assay with M14 melanoma, in the assay on RPMI-8226 leukemia and in the assay with K-562 leukemia was greater than 100 µM in each case.
Turning to `O=C1CC(c2ccccc2Cl)C2(C(=O)NC(=O)NC2=O)C(c2ccccc2Cl)C1` (stereo unspecified), the TGI in the assay with SK-MEL-5 melanoma, with MOLT-4 leukemia, with HCT-15 colon, in the assay with A549 NSCLC, with TK-10 renal and in the assay with NCI-H226 lung was greater than 100 µM each time. For the same molecule, the TGI with M14 melanoma, with RPMI-8226 leukemia and in the assay on K-562 leukemia was greater than 100 µM throughout.
